{"source": "patent US20120070476A1", "about": "“Compositions and Methods for Inactivation of Pathogens at Genital Tract Surfaces” (priority 2009, published 2012)", "key": {"[1]": {"test_system": "lactobacilli", "assay": "Survival of lactobacillus strains after 2-hour exposure to lactic acid", "assay_type": "cell-based, four lactobacillus strains", "method": "(§1) Eighteen BV-associated organisms, and four lactobacillus strains obtained from the American Type Culture Collection, Rockville Md., were grown in appropriate growth medium and incubation conditions, and exposed to a 2-hour further incubation at 37° C. in media at pH 7 without lactic acid, or at pH 4.5 with racemic lactic acid concentrations ranging from zero to 550 mM (5%). The number of organisms surviving exposure to these conditions is plotted in FIG. 4. BV-associated organisms are plotted with solid lines."}, "[2]": {"test_system": "Herpes simplex virus type-1 (HSV-1)", "assay": "Inactivation of HSV-1 (KOS strain) by acidified exposure media", "assay_type": "cell-based", "conditions": "0.1%, pH 3.8, 30-minute exposure"}, "[3]": {"test_system": "Herpes simplex virus type 2 (HSV-2)", "assay": "Inactivation of cell-free HSV-2 by acidified exposure media, titred on Elvis cells", "assay_type": "cell-based", "conditions": "0.1% acid, pH 3.8, 30 minutes, 37° C.", "method": "The effect of low pH alone, and low pH in the presence of racemic lactic acid, L-lactic acid, and D-lactic acid on the survival of Herpes simplex virus type 2 (HSV-2) was assessed. Cell-free HSV-2 (ATCC VR-734™ strain 9, American Type Culture Collection, Manassas, Va.) was aliquoted, stored at −80° C., and thawed immediately before its use. Elvis™ (Enzyme-linked Virus Inducible System™) cells (Diagnostic Hybrids, Athens Ohio) were supplied growing in flat-bottomed, 96-well microplates. Each plate was kept in a humidified incubator (5% CO2, 37° C.) until the cells were between 75% and 95% confluent. The supplier's original growth medium was replaced with fresh, pre-warmed tissue culture re-feeding medium (Trinity Biotech USA, Jamestown, N.Y.) several hours before the microplate was used in an experiment.\nViral exposure media were prepared by adding 0.1% D,L-lactic acid (Sigma-Aldrich, St. Louis, Mo.), D-lactic acid (Bachem Bioscience Inc., King of Prussia, Pa.), L-lactic acid, (Sigma-Aldrich, St. Louis, Mo.), acetic acid (Sigma-Aldrich) or no acid to 0.9% NaCl in deionized water. The pH of the solutions was measured and adjusted as necessary before, during, and after the experiments using an MI-410 combination pH electrode (Microelectrodes Inc., Bedford, N.H.) to pH 3.8 for all of the organic acid-containing viral exposure media. Two viral exposure media not containing an organic acid were adjusted to pH 3.8 with HCl, or to pH 7.4 with dilute NaOH. Freshly thawed viral stock was diluted 1:10 with viral exposure media and incubated for 30 minutes at 37° C. At the end of the incubation, all media were diluted ten-fold with re-feeding medium to rapidly neutralize the acidity of those media that were acidic. Three-fold serial dilutions were then made with the same growth medium. Each dilution of virus was then inoculated into two replicate wells on a microplate of Elvis™ cells. The microplate was spun at […], 25° C. for 25 minutes and incubated in a humidified incubator (5% CO2, 37° C.) for 16-24 hours. The growth medium was removed from the microplate wells, and the Elvis™ cells were fixed and stained according to the manufacturer's instructions. The microplate wells were examined on an inverted microscope for the presence of blue-stained cells, indicating viral infection."}, "[4]": {"test_system": "HeLa cells", "protocol": "The toxicity of D-lactic acid and of L-lactic acid were assessed on tissue culture monolayers using a well known cell viability assay. HeLa cells (ATCC CCL-2, a cell line derived from a cervical epithelial cancer) were grown in 96-well tissue culture plates to approximately 90% confluence in DMEM medium supplemented with 3% fetal bovine serum. Medium was removed from the wells, and replaced by the same medium now containing D- or L-lactic acid between concentrations of 0% and 1% (w/v). The plates were incubated for 30 minutes at 37° C. and 5% CO2. The wells were washed three times with 0.9% saline, and then 20 microliters of a tetrazolium viability stain (Promega CellTiter 9603 One Solution) was added. After 1 hour, the absorbance of the fluid in the wells was read with a spectrophotometer at a wavelength of 575 nanometers."}, "[5]": {"test_system": "M. mulieris, M. curtisii, Mycoplasma hominus", "assay": "Inactivation of three BV-associated organisms by L-lactic acid", "assay_type": "cell-based, Mobiluncus mulieris, Mobiluncus curtisii", "conditions": "pH 4.5, 2-hour, 37° C.", "method": "as §1"}, "[6]": {"test_system": "BV-associated organisms", "assay": "Survival of BV-associated organisms after 2-hour exposure to racemic lactic acid", "assay_type": "cell-based, Eighteen BV-associated organisms", "conditions": "pH 4.5, between 10 and 100 mM (~0.1-1%) lactic acid, 37° C., versus pH 4.5 without lactic acid", "method": "as §1"}}, "data": [{"smiles": "C[C@H](O)C(=O)O", "note": "[L-lactic acid]", "values": [{"measurement": "concentration not harmful to lactobacilli", "setting": "[1]; pH 4.5, inferred from 550 mM racemic lactic acid being 50% L-lactic acid", "value": "up to 280 mM"}, {"measurement": "HSV-1 inactivation, greater than D-lactic acid at pH 3.8", "setting": "[2]", "value": "approximately 10 fold"}, {"measurement": "HSV-1 inactivation, more than at pH 3.8 without lactic acid", "setting": "[2]", "value": "~25", "unit": "fold"}, {"measurement": "HSV-1 inactivation, more than the control at pH 7.4 without lactic acid", "setting": "[2]", "value": "approximately 80 fold"}, {"measurement": "HSV-2 inactivation beyond low pH without organic acids (in words)", "setting": "[3]", "value": "further reduced HSV-2 viability"}, {"measurement": "reduction of HSV-2 viability, more than low pH with D-lactic acid", "setting": "[3]", "value": "approximately 5 fold"}, {"measurement": "reduction of HSV-2 viability, more than low pH without lactic acid", "setting": "[3]", "value": "approximately 11 fold"}, {"measurement": "shift of dose-response for cellular cytotoxicity relative to D-lactic acid", "setting": "[4]", "value": "more than 500 fold"}, {"measurement": "Inactivation of all three organisms at pH 4.5 with L-lactic acid versus pH 4.5 without lactic acid (in words)", "setting": "[5]", "value": "substantially greater"}]}, {"smiles": "CC(=O)O", "note": "[acetic acid, reference compound]", "values": [{"measurement": "HSV-2 inactivation beyond low pH without organic acids (in words)", "setting": "[3]", "value": "did not increase the degree of inactivation"}]}, {"smiles": "C[C@@H](O)C(=O)O", "note": "[D-lactic acid, reference compound]", "values": [{"measurement": "HSV-2 inactivation beyond low pH without organic acids (in words)", "setting": "[3]", "value": "further reduced HSV-2 viability"}]}, {"smiles": "CC(O)C(=O)O", "note": "(racemic) [racemic lactic acid, D,L-lactic acid, reference compound]", "values": [{"measurement": "Survival of lactobacilli (in words)", "setting": "[1]; pH 4.5, highest concentration tested (5% or ~550 millimolar), 2-hour, 37° C.", "value": "survived unaltered"}, {"measurement": "Inactivation of BV-associated organisms (in words)", "setting": "[6]", "value": "dramatically increased"}]}]}
